Patent US9359313B2, “Use of metformin in combination with a glucokinase activator and compositions comprising metformin and a glucokinase activator” (vTv Therapeutics LLC, priority 2010, dated 2016)
Values belong to the compound of their own block, whether it stands above or below them.

Columns and labels:
[1] = tested on: diabetic ob/ob mice; test: Treatment of diabetic ob/ob mice with UD1 and metformin: post-prandial glucose; assay type: in vivo; details: 75 mg/kg UD1, 100 mg/kg Met; for mean post-prandial glucose level / mean glucose level: n=10; for mean glucose level: time 0 hours (baseline)
Description: Before treatment, the mice were assigned to four groups based on baseline glucose levels and body weight (n=10 for each group). Each group of mice was dosed with one of the following: (1) a control substance; (2) 75 mg/kg UD1; (3) 100 mg/kg metformin (Met); or (4) 75 mg/kg UD1 and 100 mg/kg metformin (Met). Post-prandial glucose was measured at time points of 1, 3, 5, 7, and 9 hours following dosing.

[2] = Pharmacokinetic evaluation of three oral UD1 dosage forms in male beagle dogs; assay type: in vivo; details: 100 mg of UD1, fasted, mean of 3 dogs
Description: For all nine dogs, 100 mg of UD1 was administered orally. Each dog was dosed in a fasted state, where food was provided 4 hours following dosing. Blood samples were taken for pharmacokinetic (PK) evaluation at the following time intervals following dosing: 0.5, 1.0, 2.0, 4.0, 6.0, 8.0, 12.0, and 24.0 hours.

SMILES: CN(C)C(=N)NC(=N)N [Met, N,N-dimethylimidodicarbonimidic diamide, reference compound]
change in glucose levels relative to control, AUC 0-9 hrs [1]: -39 mg·h/dL
mean post-prandial glucose level ([1]; 1 hour following dosing): 357 mg/dL
mean post-prandial glucose level ([1]; 3 hours following dosing): 334 mg/dL
mean post-prandial glucose level ([1]; 5 hours following dosing): 459 mg/dL
mean post-prandial glucose level ([1]; 7 hours following dosing): 501 mg/dL
mean post-prandial glucose level ([1]; 9 hours following dosing): 484 mg/dL
mean glucose level [1]: 389 mg/dL

AUC0-∞ [2]: 15802 ng·h/mL
Cmax [2]: 6985 ng/mL
SMILES: CCCO[C@H]1CC[C@H](N(C(=O)Nc2ncc(SCC(=O)O)s2)C2CCCCC2)CC1.CN(C)C(=N)NC(=N)N [Metformin Salt, 1,1-dimethylbiguanide salt of {2-[3-cyclohexyl-3-(trans-4-propoxy-cyclohexyl)-ureido]-thiazol-5-ylsulfanyl}-acetic acid]

SMILES: CCCO[C@H]1CC[C@H](N(C(=O)Nc2ncc(SCC(=O)O)s2)C2CCCCC2)CC1 [UD1, {2-[3-cyclohexyl-3-(trans-4-propoxy-cyclohexyl)-ureido]-thiazol-5-ylsulfanyl}-acetic acid]
change in glucose levels relative to control, AUC 0-9 hrs [1]: -748 mg·h/dL
mean post-prandial glucose level ([1]; 1 hour following dosing): 321 mg/dL
mean post-prandial glucose level ([1]; 3 hours following dosing): 254 mg/dL
mean post-prandial glucose level ([1]; 5 hours following dosing): 376 mg/dL
mean post-prandial glucose level ([1]; 7 hours following dosing): 382 mg/dL
mean post-prandial glucose level ([1]; 9 hours following dosing): 394 mg/dL
mean glucose level [1]: 391 mg/dL
